According to US5925369A, “Bis alkanoyl esters of carnitine having bactericidal, fungicidal and antiprotozoal activity” (priority 1996, dated 1999):

Assays:
[1] = tested on: Trichomonas vaginalis; assay: MIC on protozoa (Trichomonas vaginalis); type: cell-based; conditions: Metronidazole resistant strains T. vaginalis SS-20 and SS-22 (25 and 50)
Method: Protozoal suspensions are prepared from 24-hour cultures grown at 37° C. and 5% CO2 in DIAMOND T.Y.M. broth supplemented with 10% heat-inactivated FCS.
The suspensions are adjusted, in the same medium, to a final concentration of 2.5×10^5 cells/ml in each well of a 96-well microtiter plate. Substance dilutions (0.3 log) are added to the suspensions in order to have a range of final concentrations from 0.19 to 100 mcg/ml. Microtiters are then incubated at 37° C. and 5% CO2 for 24 hours. MIC is referred to as the minimal concentration inhibiting either protozoa or flagella or undulating membrane motility (Cf. JULIANO C., MARTINOTTI M. G., […] P., In vitro effect of microtubule inhibitors on T. vaginalis, Microbiologia, 8:31-42, 1985. LOVGREN T. and SALMELA I., Invitro sensitivity of T. vaginalis and C. albicans to chemotherapeutic agents, Acta Path. Microbiol. Scand.. 86:155-158, 1978).

[2] = tested on: T. mentagrophytes IDI D1049; assay: Antifungal activity in experimental Tinea pedis in the guinea-pig paw; type: in vivo, Hartley guinea-pig; conditions: for A (clinical sign score) / D (clinical sign score) / E (clinical sign score): scale 0-3
Excerpt: Twelve male Hartley guinea-pig (C. RIVER), weighing 350-400 gr, have been utilized (3 animals per experimental group).
One clinical isolate (Tricophyton mentagrophytes IDI D 1049, from Immacolata Dermatological Institute of Rome) was utilized.
Microaleuriospores were first harvested by scraping from a 7-day fungal culture grown in Potato dextrose agar, and then resuspended in Sabouraud broth with 0.5% Tween 80.
After washing, the spores were standardized in sterile saline to yield a final concentration of 1.0×10^8 spores/ml.
Each group included 3 animals, and only the left hind paw was inoculated. For the 2 control groups, 3 animals in total were used, as both hind paws of each animal were inoculated.
Filter paper discs (12-mm diameter and 0.3-mm thickness) were covered with aluminum foil in the lower part to prevent the inoculum spreading. This filter was then sticked to a 1×3-cm piece of biadesive plaster, which adhered to a gauze wrapped around the paw.
The filter paper disc was then wetted with 100 μl of the infective suspension, and subsequently fixed to the guinea-pig paw.
The animal paw was tied up with bandage and plaster, and then left in these conditions for 7 days.
Seven days after infection, the infected areas were uncovered and the type of lesion was graded according to an arbitrary scale, as follows:
These "clinical" signs were examined again on days +14, +21, and +31 (day of sacrifice of animals). Three days following the first observation of the type of lesion (day +10), treatments with the differrent formulations were started, and they went on for 20 days (once a day). Two days following the last treatment (day +31), animals were sacrificed and plantar areas of the paws were dissected into 10 parts for each paw.
These sections were plated onto Mycobiotic agar supplemented with Penicillin G and Streptomicin (100 mcg/ml). Volumes of 50 μl of both antibiotics were then added to the plantar sections to prevent any bacterial growth that might interfere with the growth of T. mentagrophytes in the samples under examination.
The data obtained were expressed as the number of microbiologically sterile cutaneous sections over the total examined sections.

[3] = 1.5%, 20 days once a day, day +31

MIC of Metronidazole [1] [µg/mL] | MIC ([1]; Trichomonas vaginalis, 24 h, read-out: MIC of Metronidazole) [µg/mL] | Structure (SMILES) | eradication of infection ([2]; 1.5% Miconazole) | A (clinical sign score) ([2]; 1.5%, 7th day) | D (clinical sign score) ([2]; 1.5%, 7th day) | E (clinical sign score) ([2]; 1.5%, 7th day) | A (clinical sign score) ([2]; 1.5%, 14th day) | D (clinical sign score) ([2]; 1.5%, 14th day) | E (clinical sign score) ([2]; 1.5%, 14th day) | A (clinical sign score) ([2]; 1.5%, 21st day) | D (clinical sign score) ([2]; 1.5%, 21st day) | E (clinical sign score) ([2]; 1.5%, 21st day) | A (clinical sign score) ([2]; 1.5%, 31st day) | D (clinical sign score) ([2]; 1.5%, 31st day) | E (clinical sign score) ([2]; 1.5%, 31st day) | sterile samples (%) [2, 3] [%] | sterile samples (n = 30), number over total [2, 3]
50 | 25 | Cc1ncc([N+](=O)[O-])n1CCO [Metronidazole] |  |  |  |  |  |  |  |  |  |  |  |  |  |  | 
 |  | Clc1ccc(COC(Cn2ccnc2)c2ccc(Cl)cc2Cl)c(Cl)c1 (centres unmarked) [Miconazole, reference compound] | capable of eradicating infection from all treated samples | 0 | 0 | 0 | 0 | 0 | 0 | 0 | 0 | 0 | 0 | 0 | 0 | 100 | 30/30
